{"source": "paper PMC11084461", "about": "“The First Reciprocal Activities of Chiral Peptide Pharmaceuticals: Thymogen and Thymodepressin, as Examples” (International Journal of Molecular Sciences, 2024)", "origin": "cited, not measured here", "key": {"thymocyte regeneration": {"tested_on": "thymocyte regeneration", "set-up": "method as in PMID 6971758", "conditions": "same conditions for all isomers"}, "psoriasis vulgaris": {"tested_on": "psoriasis vulgaris", "set-up": "method as in PMID 15199399"}, "[1]": {"tested_on": "hematopoietic progenitor cells", "set-up": "method as in ref 74 = [74]; 74. Semina O.V. Semenets T.N. Deigin V.I. Korotkov A.M. Vinogradova Y.E. Poverenny A.M. Stimulation with Thymogen (EW), a dipeptide that has immunoprotective properties to restore hematopoiesis in irr", "conditions": "mice; for Protective effect on hematopoietic progenitor cells after Cytosar treatment: administered two days before Cytosar injection"}, "bone marrow": {"tested_on": "bone marrow", "set-up": "method as in ref 92 = [92]; 92. Dyadkin V.Y. Shamov B.A. The experimental application of Thymodepressin in patients with psoriasis Dermatology 2003 1 36", "conditions": "pre-treatment two days before irradiation; seven days after irradiation, persisted 14 observation days"}, "mature T-lymphocyte": {"tested_on": "mature T-lymphocyte", "set-up": "method as in PMID 12360601", "conditions": "indicated by changed CD25+ and CD69+ markers"}, "CFU-C-8 cells": {"tested_on": "CFU-C-8 cells", "set-up": "method as in PMID 19145362"}, "autoantibodies": {"tested_on": "autoantibodies", "set-up": "method as in ref 97 = [97]; 97. Krasilshchikova M. Leonov V. Zatsepina O. Deigin V. Immunosuppressor studies of Thymodepressin in the experimental autoimmune model Immunology 2009 5 290 294", "conditions": "SJL/J mouse"}, "bone marrow cells": {"tested_on": "bone marrow cells", "set-up": "method as in PMID 16307056", "conditions": "mice irradiated 4 Gy, treated seven days after irradiation, read on day eight"}, "[2]": {"tested_on": "colony-forming unit (CFU)", "set-up": "method as in PMID 30927190", "conditions": "lethally irradiated mice, i/p on days 1, 2 and 3 after allogeneic bone marrow transplantation"}, "[3]": {"tested_on": "hematopoietic stem cell progenitors", "set-up": "method as in ref 82 = [82]; 82. Vladimirskaya E.B. Osipova Y.E. Kaznacheev K.S. Ivanova K.A. Deigin V.I. Rumyantsev A.G. The effect of Thymodepressin on the proliferation of human hematopoietic progenitor cells Hematol. Transfus", "conditions": "in vitro in methylcellulose, MTT test; dose range from 1 µg/mL to 10 µg/mL"}, "leukocytes": {"tested_on": "leukocytes", "set-up": "method as in ref 75 = [75]; 75. Vinogradova Y.E. Deigin V.I. Korotkov A.M. Semina O.V. Sements T.N. Poverenny A.M. Use of Thymogen for the treatment of patients with diseases of the blood system. The influence of Thymogen on the", "conditions": "patients after polychemotherapy receiving Thymogen"}, "[4]": {"conditions": "experimental group (29 patients)"}}, "note": "Where two headings read alike, the source gives them in different places."}
{"substance": "D-Glu-D-Trp", "values": [{"measurement": "Influence on thymocyte regeneration (restoring E-rosette-forming units)", "setting": "thymocyte regeneration", "result": "effective inhibitors of thymocyte regeneration"}]}
{"substance": "D-Glu(D-Trp) [Thymodepressin]", "values": [{"measurement": "Clinical improvement", "setting": "psoriasis vulgaris; [4]", "result": 13, "unit": "patients"}, {"measurement": "Significant clinical improvement", "setting": "psoriasis vulgaris; [4]", "result": 16, "unit": "patients"}, {"measurement": "PASI (Psoriasis Area and Severity Index)", "setting": "psoriasis vulgaris; experimental group (29 patients), 1st day of treatment, i/m 1 mL 0.1% solution", "result": 26.8}, {"measurement": "PASI (Psoriasis Area and Severity Index)", "setting": "psoriasis vulgaris; experimental group, 21st day, three i/m courses of 1 mL 0.1% solution daily for five days", "result": 8.6}, {"measurement": "Decrease in the PASI index", "setting": "psoriasis vulgaris; experimental group, day 1 to day 21", "result": 70, "unit": "%"}, {"measurement": "Protective effect on hematopoietic progenitor cells after Cytosar treatment", "setting": "[1]", "result": "completely protected"}, {"measurement": "Number of CFU-S-8 colonies", "setting": "[1]; two days before Cytosar, after 3 h and up to seven days", "result": "restored the number of CFU-S-8 colonies to an intact level"}, {"measurement": "Bone marrow cell number (cellularity)", "setting": "bone marrow", "result": "restored to an intact level"}, {"measurement": "Mature T-lymphocyte activation", "setting": "mature T-lymphocyte", "result": "suppression of mature T-lymphocyte activation"}, {"measurement": "Number of leucocytes in the blood", "setting": "CFU-C-8 cells; experimental animal, after administration of the peptide", "result": "dose-dependent transient decrease"}, {"measurement": "Number of committed CFU-C-8 cells in the S-phase of the cell cycle", "setting": "CFU-C-8 cells; in vitro and in vivo", "result": "reducing the number of committed CFU-C-8 cells in the S-phase"}, {"measurement": "Dose of most effective immunosuppression, therapeutic regimen", "setting": "autoantibodies", "result": 0.7, "unit": "mg/kg"}, {"measurement": "Immunosuppressive effect, prophylactic regimen", "setting": "autoantibodies; doses 0.14, 0.35 and 0.7 mg/kg", "result": "pronounced immunosuppressive effect"}, {"measurement": "Immunosuppressive effect, therapeutic regimen", "setting": "autoantibodies; doses 0.14, 0.35 and 0.7 mg/kg", "result": "distinct immunosuppressive effect"}, {"measurement": "Persistence of effect after the end of the drug administration", "setting": "autoantibodies; prophylactic regimen", "result": "over ten weeks"}, {"measurement": "Influence on thymocyte regeneration (restoring E-rosette-forming units)", "setting": "thymocyte regeneration", "result": "effective inhibitors of thymocyte regeneration"}, {"measurement": "Rate of dividing bone marrow cells", "setting": "bone marrow cells", "result": "below that of the intact control"}, {"measurement": "Yield of colonies compared to the control animals", "setting": "[2]", "result": "approximately four times"}, {"measurement": "Cloning efficiency of hematopoietic stem cell progenitors", "setting": "[3]", "result": "suppresses the cloning efficiency of all hematopoietic stem cell progenitors"}]}
{"substance": "L-Glu-L-Trp [Thymogen]", "values": [{"measurement": "Influence on thymocyte regeneration (restoring E-rosette-forming units)", "setting": "thymocyte regeneration", "result": "stimulating activity"}, {"measurement": "Average leukocyte count compared to the group receiving protocol treatment", "setting": "leukocytes", "result": "doubled"}]}
{"substance": "Cyclosporine [reference compound]", "values": [{"measurement": "Protective effect on hematopoietic progenitor cells after Cytosar treatment", "setting": "[1]", "result": "had no effect"}, {"measurement": "Effective dose, prophylactic regimen", "setting": "autoantibodies", "result": "20 to 50", "unit": "mg/kg"}, {"measurement": "Dose at which statistically significant effect was achieved", "setting": "autoantibodies; prophylactic regimen", "result": 50, "unit": "mg/kg"}]}
{"substance": "L-Glu–(L-Trp)-OH", "values": [{"measurement": "Influence on thymocyte regeneration (restoring E-rosette-forming units)", "setting": "thymocyte regeneration", "result": "stimulating activity"}]}
